# Measurements reported in ChEMBL document CHEMBL1201862, “PubChem BioAssay data set” (2004).
#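 Interpolation was linear, between the two tested concentrations surrounding the appropriate level; five concentrations were tested over 48 hours in 96-well plates. The concentration for 50% growth inhibition is given as GI50.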 Activity calls are given as the source filed them. Rule as the data show it: active = GI50 up to about 1.1 µM and inactive = higher.
# Tests used:
# Assay in all cases: inhibition of tumour cell growth, NCI panel, 48 h
# SF-268 = test system: SF-268
# SN12C = test system: SN12C
# HCT-15 = test system: HCT-15
# OVCAR-8 = test system: OVCAR-8
# OVCAR-3 = test system: OVCAR-3
# IGROV-1 = test system: IGROV-1
# TK-10 = test system: TK-10
# HT-29 = test system: HT-29
# LOX IMVI = test system: LOX IMVI
# SF-539 = test system: SF-539
# M14 = test system: M14
# A498 = test system: A498
# HCC 2998 = test system: HCC 2998
# 786-0 = test system: 786-0
# OVCAR-5 = test system: OVCAR-5
# SNB-75 = test system: SNB-75
# MOLT-4 = test system: MOLT-4
# Malme-3M = test system: Malme-3M
Compound,GI50 (SF-268),GI50 (SN12C),GI50 (HCT-15),GI50 (OVCAR-8),GI50 (OVCAR-3),GI50 (IGROV-1),GI50 (TK-10),GI50 (HT-29),GI50 (LOX IMVI),GI50 (SF-539),GI50 (M14),GI50 (A498),GI50 (HCC 2998),GI50 (786-0),GI50 (OVCAR-5),GI50 (SNB-75),GI50 (MOLT-4),GI50 (Malme-3M)
COc1cc([C@@H]2c3cc4c(cc3[C@@H](NC(=O)c3ccc([N+](=O)[O-])cc3)C3COC(=O)[C@@H]32)OCO4)cc(OC)c1O (some centres undefined),1.6 µM (inactive),0.215 µM (active),1.57 µM,0.923 µM (active),1.76 µM (inactive),0.261 µM (active),2.03 µM (inactive),1.58 µM (inactive),0.318 µM (active),0.275 µM (active),0.653 µM (active),1.28 µM (inactive),1.22 µM (inactive),0.242 µM (active),1.87 µM (inactive),0.809 µM (active),< 0.01 µM (active),0.817 µM (active)
FC(F)(F)c1ccc(C2SCc3nc4ccccc4n32)cc1 (centres undefined),95.3 µM (inactive),> 100 µM (inactive),–,> 100 µM (inactive),> 10 µM (inactive),14.2 µM (inactive),> 100 µM (inactive),> 100 µM (inactive),–,> 100 µM (inactive),–,81.8 µM (inactive),> 100 µM (inactive),> 100 µM (inactive),15.5 µM (inactive),60 µM (inactive),12.1 µM (inactive),> 100 µM (inactive)
Cc1nc2ccccc2c(=O)n1-c1ccccc1I,> 100 µM (inactive),> 100 µM (inactive),> 100 µM,> 100 µM (inactive),> 100 µM (inactive),> 100 µM (inactive),> 100 µM (inactive),> 100 µM (inactive),–,–,> 100 µM (inactive),> 100 µM (inactive),> 100 µM (inactive),> 100 µM (inactive),> 100 µM (inactive),46.2 µM (inactive),> 100 µM (inactive),> 100 µM (inactive)
CCCCCCCCCC(=O)OCC1OC(n2cc(F)c(=O)[nH]c2=O)C(NC(=O)OCc2ccccc2)C(OC(=O)CCCCCCCCC)C1O (centres undefined),51.4 µM (inactive),15.8 µM (inactive),35.2 µM,24.3 µM (inactive),21.2 µM (inactive),> 100 µM (inactive),80.9 µM (inactive),16.9 µM (inactive),16.6 µM (inactive),40.8 µM (inactive),52.2 µM (inactive),25.1 µM (inactive),41.2 µM (inactive),18.9 µM (inactive),–,16.3 µM (inactive),18.7 µM (inactive),24.2 µM (inactive)
CCO/C([O-])=C(\C(=O)c1ccc([N+](=O)[O-])cc1)[n+]1c(C)n(C)c2ccccc21,> 100 µM (inactive),–,–,> 100 µM (inactive),> 100 µM (inactive),> 100 µM (inactive),> 100 µM (inactive),> 100 µM (inactive),> 100 µM (inactive),> 100 µM (inactive),> 100 µM (inactive),> 100 µM (inactive),> 100 µM (inactive),> 100 µM (inactive),> 100 µM (inactive),> 100 µM (inactive),> 100 µM (inactive),> 100 µM (inactive)
Oc1ccc(Br)cc1/C=N/c1ccc(Oc2ccc(/N=C/c3cc(Br)ccc3O)cc2)cc1,> 19.6 µM (inactive),> 19.6 µM (inactive),–,> 19.6 µM (inactive),> 19.6 µM (inactive),> 19.6 µM (inactive),> 19.6 µM (inactive),> 19.6 µM (inactive),> 19.6 µM (inactive),> 19.6 µM (inactive),> 19.6 µM (inactive),> 19.6 µM (inactive),> 19.6 µM (inactive),> 19.6 µM (inactive),> 19.6 µM (inactive),> 19.6 µM (inactive),> 19.6 µM (inactive),> 19.6 µM (inactive)
COc1cc(/C=C/c2ccc(OC)c(O)c2)cc(OC)c1,8.55 µM (inactive),8.51 µM (inactive),3.94 µM,5.92 µM (inactive),2.16 µM (inactive),18.7 µM (inactive),37.3 µM (inactive),16.7 µM (inactive),12.2 µM (inactive),2.39 µM (inactive),3.08 µM (inactive),29.4 µM (inactive),20.3 µM (inactive),15.7 µM (inactive),31.8 µM (inactive),–,3.35 µM (inactive),10 µM (inactive)
Cc1n[nH]c(=S)n(C)c1=S,> 100 µM (inactive),> 100 µM (inactive),> 100 µM,> 100 µM (inactive),> 100 µM (inactive),> 100 µM (inactive),> 100 µM (inactive),–,> 100 µM (inactive),> 100 µM (inactive),> 100 µM (inactive),> 100 µM (inactive),–,> 100 µM (inactive),> 100 µM (inactive),> 100 µM (inactive),> 100 µM (inactive),> 100 µM (inactive)
CN(C)C(=S)/N=c1\ssc(=S)n1Cc1ccncc1,24.3 µM (inactive),> 100 µM (inactive),17.5 µM,23.1 µM (inactive),13.3 µM (inactive),17.9 µM (inactive),25 µM (inactive),–,19.8 µM (inactive),21.2 µM (inactive),20.6 µM (inactive),36.2 µM (inactive),21.1 µM (inactive),21.7 µM (inactive),40.8 µM (inactive),13.6 µM (inactive),14 µM (inactive),16.3 µM (inactive)
CN(C)CCC(/C=C/c1ccccc1)=N\Nc1ccc(Cl)cc1Cl,12.2 µM (inactive),11.1 µM (inactive),11.9 µM,16.3 µM (inactive),14.1 µM (inactive),8.02 µM (inactive),14.2 µM (inactive),14.2 µM (inactive),–,15.2 µM (inactive),13.7 µM (inactive),16.6 µM (inactive),–,12.9 µM (inactive),15.5 µM (inactive),6.1 µM (inactive),10.9 µM (inactive),18.5 µM (inactive)
CC1CC[C@]2(C(=O)O)CCC3(C)C(=CCC4[C@@]5(C)CC[C@H](OS(=O)(=O)c6ccccc6)C(C)(C)C5CC[C@]43C)[C@@H]2[C@H]1C (some centres undefined),> 100 µM (inactive),> 100 µM (inactive),–,> 100 µM (inactive),> 100 µM (inactive),> 100 µM (inactive),> 100 µM (inactive),> 100 µM (inactive),83 µM (inactive),> 100 µM (inactive),> 100 µM (inactive),> 100 µM (inactive),63.8 µM (inactive),> 100 µM (inactive),> 100 µM (inactive),> 100 µM (inactive),34.3 µM (inactive),> 100 µM (inactive)
OC1OCC(COc2cc(Cl)c(Cl)cc2Cl)OC1O (centres undefined),68.2 µM (inactive),38.2 µM (inactive),19.8 µM,36.8 µM (inactive),25.5 µM (inactive),80.9 µM (inactive),> 100 µM (inactive),65.8 µM (inactive),–,39.4 µM (inactive),30.1 µM (inactive),44.5 µM (inactive),30.4 µM (inactive),77.1 µM (inactive),> 100 µM (inactive),26.2 µM (inactive),32.2 µM (inactive),61.2 µM (inactive)
CC1(C)C(=O)C(=Cc2ccco2)C1=O,> 100 µM (inactive),> 100 µM (inactive),> 100 µM,> 100 µM (inactive),–,> 100 µM (inactive),> 100 µM (inactive),> 100 µM (inactive),> 100 µM (inactive),> 100 µM (inactive),> 100 µM (inactive),> 100 µM (inactive),> 100 µM (inactive),> 100 µM (inactive),> 100 µM (inactive),> 100 µM (inactive),> 100 µM (inactive),> 100 µM (inactive)
CCCCc1c2c([n+]([O-])c3c1CCCC3)CCCC2,66.4 µM (inactive),> 100 µM (inactive),21.6 µM,> 100 µM (inactive),31 µM (inactive),43.1 µM (inactive),> 100 µM (inactive),> 100 µM (inactive),> 100 µM (inactive),> 100 µM (inactive),> 10 µM (inactive),–,> 100 µM (inactive),> 100 µM (inactive),–,–,6.59 µM (inactive),> 100 µM (inactive)
COc1ccc(N2C(=O)C3CC(c4ccc(Br)cc4)c4c([nH]c5ccccc45)C3C2=O)cc1 (centres undefined),6.78 µM (inactive),3.93 µM (inactive),90.6 µM,2.13 µM (inactive),–,10.6 µM (inactive),7.1 µM (inactive),13.2 µM (inactive),4.69 µM (inactive),3.52 µM (inactive),19.5 µM (inactive),9.59 µM (inactive),–,2.2 µM (inactive),22.6 µM (inactive),9.12 µM (inactive),10.8 µM (inactive),14.8 µM (inactive)
Cc1cc2nc3c(C(OC4OC(CO)C(O)C(O)C4O)C(O)CO)nn(-c4ccc(F)cc4)c3nc2cc1C (centres undefined),> 100 µM (inactive),> 100 µM (inactive),> 100 µM,> 100 µM (inactive),> 100 µM (inactive),–,> 100 µM (inactive),> 100 µM (inactive),> 100 µM (inactive),> 100 µM (inactive),> 100 µM (inactive),> 100 µM (inactive),> 100 µM (inactive),> 100 µM (inactive),> 100 µM (inactive),80.7 µM (inactive),> 100 µM (inactive),> 100 µM (inactive)
CC1=C(c2nc3ccccc3s2)C(=O)OC1(C)C,> 100 µM (inactive),> 100 µM (inactive),> 100 µM,> 100 µM (inactive),> 100 µM (inactive),–,–,> 100 µM (inactive),> 100 µM (inactive),> 100 µM (inactive),> 100 µM (inactive),–,> 100 µM (inactive),> 100 µM (inactive),> 100 µM (inactive),86.5 µM (inactive),> 100 µM (inactive),> 100 µM (inactive)
